In one data set the test system is MDA-MB-231. Format: cell-based. Particulars: IC50 MCF-10A divided by IC50 MDA-MB-231.
A further data set relates to MCF7. Format: cell-based. Conditions: IC50 MCF-10A divided by IC50 MCF7.
In another data set the test system is HeLa. It counts as cell-based. Conditions: for Selectivity index (SI) over MCF-10A cells: IC50 MCF-10A divided by IC50 HeLa.
A further data set deals with U937. It counts as cell-based. Particulars: for Selectivity index (SI) over MCF-10A cells: IC50 MCF-10A divided by IC50 U937.
In the next data set the test system is Jurkat. It counts as cell-based. Particulars: for Selectivity index (SI) over MCF-10A cells: IC50 MCF-10A divided by IC50 Jurkat.
Another data set has as its system MCF-10A. Format: cell-based. Conditions: for Selectivity index (SI), overall statement: tested cancer cell lines, MCF-10A as reference nontumor cell line.
In the next data set the test system is NIH/3T3. Format: cell-based. Particulars: read-out: Cell cytotoxicity IC50; NIH/3T3 nontumor cell line.
In another data set the test system is cancer cell lines. Particulars: several cancer cell lines; cited from earlier work.

A value given as a limit tells only on which side of the number the result lay.

We go through two compounds from article PMC4821163 (Organic letters, 2016).

A word on the IC50: it is the concentration that gives 50% inhibition. Take `C/C=C(\C)C(=O)O[C@@H]1[C@@H](O)[C@@H]2O[C@H]3[C@H](O[C@@H](CCCCC)CCCCCCC(=O)CCC(=O)OC[C@@H](O2)[C@H]1OC(=O)/C=C/c1ccccc1)O[C@H](C)[C@H](OC(C)=O)[C@@H]3O` [ipomoeassin F]: the “Selectivity index (SI) over MCF-10A cells” value is recorded as 0.83 with MDA-MB-231; 0.12 in the data set on MCF7; 0.33 in the data set on HeLa; 1 in the data set with U937; 0.89 in the data set with Jurkat. The half-maximal inhibitory concentration (IC50) with HeLa (read-out: Cell cytotoxicity IC50, HeLa cells) was 16.4 nM; in the data set on U937 (read-out: Cell cytotoxicity IC50, U937 cells), 5.4 nM; with Jurkat (read-out: Cell cytotoxicity IC50, Jurkat cells), 6.1 nM; in the data set on MCF-10A (read-out: Cell cytotoxicity IC50, MCF-10A nontumor cell line) it was 5.4 nM; with NIH/3T3 it was 16.8 nM. Moreover, in the data set with MCF-10A, the “Selectivity index (SI), overall statement” value was under 1. For the same compound, the “IC50 values against cancer cell growth, in words” value with cancer cell lines is recorded as “single-digit nanomolar range”.
For `CC(=O)O[C@H]1C(=O)[C@@]2(C)[C@H]([C@H](OC(=O)c3ccccc3)[C@]3(O)C[C@H](OC(=O)[C@H](O)[C@@H](NC(=O)c4ccccc4)c4ccccc4)C(C)=C1C3(C)C)[C@]1(OC(C)=O)CO[C@@H]1C[C@@H]2O` [paclitaxel], the “Selectivity index (SI) over MCF-10A cells” value in the data set with MDA-MB-231 stood at 8.04; in the data set on MCF7 it was 3.73; in the data set with HeLa, 25.6; with U937, 15.2; with Jurkat, 14.6. The “Selectivity index (SI), overall statement” value in the data set with MCF-10A was “good selectivity in general”.
